{
  "source": "patent US6258837A",
  "about": "“Neuropeptide Y receptor antagonist” (Banyu Pharmaceutical Co., Ltd., priority 1997, dated 2001)",
  "key": {"[1]": {"molecular_target": "T1, human NPY Y5 receptor (Homo sapiens, UniProt Q15761)", "T1 construct": "expressed in transfected cells; host or cells: COS-7, CHO and LM(tk-)", "T1 sequence (Q15761 1-445)": "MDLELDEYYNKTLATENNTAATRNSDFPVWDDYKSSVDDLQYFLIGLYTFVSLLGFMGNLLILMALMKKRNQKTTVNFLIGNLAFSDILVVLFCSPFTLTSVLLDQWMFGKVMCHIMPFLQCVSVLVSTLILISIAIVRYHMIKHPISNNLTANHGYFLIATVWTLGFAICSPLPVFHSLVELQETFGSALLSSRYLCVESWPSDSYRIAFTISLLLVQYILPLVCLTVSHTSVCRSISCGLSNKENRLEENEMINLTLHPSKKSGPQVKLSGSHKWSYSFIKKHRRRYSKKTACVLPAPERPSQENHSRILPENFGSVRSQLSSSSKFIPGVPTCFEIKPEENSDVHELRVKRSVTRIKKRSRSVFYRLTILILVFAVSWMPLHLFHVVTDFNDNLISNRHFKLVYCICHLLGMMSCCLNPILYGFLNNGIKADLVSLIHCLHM", "assay": "test of inhibition of NPY binding ([125I]peptide YY binding to membranes of cells expressing the NPY Y5 receptor)", "source_text": "cDNA Sequence encoding a human NPY Y5 receptor [International Publication WO 96/16542] was cloned into expression vectors pcDNA3, pRc/RSV (manufactured by Invitrogen) and pCI-neo (manufactured by Promega). Using the cationic lipid method [see Proceedings of the National Academy of Science of the United States of America, vol.84, p.7413 (1987)], host cells COS-7, CHO and LM(tk-) (American Type Culture Collection) were transfected with the thus prepared expression vectors to obtain cells in which the NPY Y5 receptor had been expressed.\nAfter washing with 50 mM Tris buffer, pH 7.4, containing 0.3% BSA, radioactivity on the glass filter was measured using a gamma counter. Non-specific binding was measured in the presence of 1 μM of peptide YY to calculate a concentration of each compound to be tested which concentration is needed to inhibit 50% of the specific binding of the peptide YY (IC50 value) [see Endocrinology, vol.131, p.2090 (1992)]."}, "[2]": {"tested_on": "SD male rats", "assay": "test of inhibition of feeding behavior induced by bPP", "format": "in vivo, rat", "details": "oral, one hour before bPP (5 μg/head/10 μl, lateral cerebral ventricle); food intake during two hours", "protocol": "Under pentobarbital anesthesia (single intraperitoneal injection of 50 mg/kg), a chronic guide cannula (outer diameter 0.8 mm; inner diameter 0.5 mm; length 10 mm) was stereotactically inserted in a right lateral cerebral ventricle of each of SD male rats (7 to 8-week-old; 200 to 300 g) and fixed using a dental resin. A tip of the guide cannula was positioned 0.9 mm behind a bregma, 1.2 mm at the right of a median line and in the depth of 1.5 mm from the brain surface. An inner needle was inserted such that its tip projected from the tip of the guide cannula by about 2 mm and arrived to a lateral cerebral ventricle. After a recovery period of about one week, a bovine pancreatic polypeptide (bpp, 5 μg/head/10 μl) was administered to the lateral cerebral ventricle. A compound to be tested was orally administered one hour before the administration of bpp and food intake during two hours from the administration was measured. In this connection, the compound to be tested was administered after dissolving in a 0.5% aqueous methyl cellulose solution and bpp was administered after dissolving in 10 mM phosphate buffered saline."}, "[3]": {"tested_on": "SD male rats", "assay": "acute toxicity test", "format": "in vivo, rat", "details": "500 mg/kg oral", "protocol": "A compound to be tested in an amount of 500 mg/kg was orally administered to each of SD male rats (10-week-old; 300 to 400 g). After immediately, 5 minutes, 30 minutes, 1 hour, 2 hours, 4 hours, 6 hours, 8 hours and 24 hours from the administration, the condition of each rat was observed. And, after 24 hours from the administration, the rat was killed by dehematizing via carotid artery and then laparotomized in order to observe the presence or absence of any change in abdominal organs by the naked eye. In this connection, the compound to be tested was administered in a dose of 5 ml/kg after suspending in a 0.5% aqueous methyl cellulose solution."}},
  "data": [
    {"compound": "CC1(C)CC(=O)C(C2C3=C(CC(C)(C)CC3=O)Oc3ccccc32)C(=O)C1", "note": "(racemic) [compound [I], 3,3-dimethyl-9-(4,4-dimethyl-2,6-dioxo-cyclohexyl)-1-oxo-1,2,3,4-tetrahydroxanthene]", "values": [
      {"measurement": "IC50", "setting": "[1]; [125I] peptide YY, 25° C., 2 hours, pH 7.4, membrane preparations, read-out: concentration needed to inhibit 50% of the specific binding of the peptide YY (IC50 value)", "value": 27, "unit": "nM"},
      {"measurement": "inhibition of the binding of the peptide YY to the NPY Y5 receptor (in words)", "setting": "[1]; peptide YY (a homologue of NPY)", "value": "strongly inhibited the binding"},
      {"measurement": "inhibition of the increase in food intake induced by bPP", "setting": "[2]", "value": "significantly inhibits the increase in food intake"},
      {"measurement": "change in abdominal organs observed by the naked eye (acute toxicity)", "setting": "[3]; 24 hours after administration", "value": "abdominal organs were observed to be unchanged"},
      {"measurement": "general health of each rat (acute toxicity)", "setting": "[3]; until 24 hours after administration", "value": "no abnormality in general health of each rat was observed"}
    ]}
  ]
}
